Source: article PMC8743659, “C1632 suppresses the migration and proliferation of non‐small‐cell lung cancer cells involving LIN28 and FGFR1 pathway” (Journal of Cellular and Molecular Medicine, 2021)
“Also recorded” adds a separate entry of the source.

Columns and labels:
CYP2C11 = target: T1, CYP2C11 (Rattus norvegicus, UniProt P08683); assay: Microsomal incubation (cocktail) assay, rat liver microsomes; format: in vitro ADME; conditions: 100 μM C1632, probe 250 μM tolbutamide, 30 min, 37°C
T1 construct: 3.4 mg/ml pooled rat liver microsomes; from tissue; host or cells: pooled rat liver microsomes
T1 sequence (P08683 1-500): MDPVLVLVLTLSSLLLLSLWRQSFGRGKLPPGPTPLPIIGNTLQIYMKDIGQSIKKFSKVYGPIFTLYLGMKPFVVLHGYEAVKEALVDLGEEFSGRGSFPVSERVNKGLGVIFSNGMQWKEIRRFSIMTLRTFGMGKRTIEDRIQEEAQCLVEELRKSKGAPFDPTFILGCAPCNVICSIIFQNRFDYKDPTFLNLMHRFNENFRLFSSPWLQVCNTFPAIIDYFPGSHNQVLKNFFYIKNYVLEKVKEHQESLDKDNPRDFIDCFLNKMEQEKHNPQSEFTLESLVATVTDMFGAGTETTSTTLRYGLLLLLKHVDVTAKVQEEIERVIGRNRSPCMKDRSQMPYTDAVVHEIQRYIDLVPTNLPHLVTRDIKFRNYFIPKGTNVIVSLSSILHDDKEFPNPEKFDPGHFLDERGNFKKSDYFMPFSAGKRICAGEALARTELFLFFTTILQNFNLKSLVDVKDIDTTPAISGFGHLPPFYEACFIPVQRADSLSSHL
Protocol: (§1) The microsomal incubation assay[41] was performed at 37°C in a 200 μl incubation system, which consisted of 3.4 mg/ml pooled rat liver microsomes, 100 μM C1632, and probe substrates (5 μM CYP3A2‐midazolam; 10 μM CYP2D1‐dextromethorphan; 250 μM CYP2C11‐tolbutamide; 10 μM CYP2B1‐bupropion; and 0.1 M Tris–HCl [pH 7.4]). After 5 min of incubation, 1 mM NADPH was added, and the assay was terminated after 30 min by cooling at −80°C. Next, 0.2 ml acetonitrile and 20 μl IS (100 ng/ml) were added to the reactant. Finally, the solution was thoroughly vortexed and centrifuged at 12,000 rpm for 10 min. The supernatant was analysed by UHPLC‐MS/MS.[42]

CYP2D1 = target: T2, CYP2D1 (Rattus norvegicus, UniProt P10633); assay: as above; format: in vitro ADME; conditions: 100 μM C1632, probe 10 μM dextromethorphan, 30 min, 37°C
T2 construct: 3.4 mg/ml pooled rat liver microsomes; from tissue; host or cells: pooled rat liver microsomes
T2 sequence (P10633 1-504): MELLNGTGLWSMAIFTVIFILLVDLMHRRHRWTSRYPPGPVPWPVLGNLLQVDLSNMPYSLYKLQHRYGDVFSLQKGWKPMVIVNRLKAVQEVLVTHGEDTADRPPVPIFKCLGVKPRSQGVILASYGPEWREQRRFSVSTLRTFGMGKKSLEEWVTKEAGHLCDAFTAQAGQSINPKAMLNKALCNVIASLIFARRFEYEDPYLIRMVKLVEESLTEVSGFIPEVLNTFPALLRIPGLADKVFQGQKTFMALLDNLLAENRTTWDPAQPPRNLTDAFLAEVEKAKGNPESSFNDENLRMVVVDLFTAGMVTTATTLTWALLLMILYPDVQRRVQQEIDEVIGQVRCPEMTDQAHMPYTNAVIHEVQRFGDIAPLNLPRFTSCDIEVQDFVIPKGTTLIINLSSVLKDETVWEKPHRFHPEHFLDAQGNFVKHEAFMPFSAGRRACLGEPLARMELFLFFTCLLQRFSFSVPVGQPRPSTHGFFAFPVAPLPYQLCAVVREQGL
Protocol: as §1

A549 cells [1] = assay: Cell adhesion assay; format: cell-based, human; conditions: A549, fibronectin-coated plate, concentration-dependent
Protocol: (§2) The cell adhesion assay was performed as indicated previously.[38] Briefly, the 96‐well plate was coated with human fibronectin (Millipore), and then cells were seeded into the 96‐well plate and cultured for another 1 h at 37°C in a 5% CO2 incubator. Finally, rinsing the plate before fixed with 10% formalin and stained with crystal violet. As followed, wash the plate with ddH2O and add 100 μl acetic acid (33%) into the plate to dissolve the crystal violet. The absorbance at 560 nm was detected by Synergy H1 Multi‐Mode Reader (BioTek). Relative number of cells attaching to extracellular matrix was evaluated using the following equation: mean OD of treated cells/mean OD of control cells.

A549R cells [2] = assay: Cell adhesion assay; format: cell-based, human; conditions: fibronectin-coated plate, concentration-dependent
Protocol: as §2

A549 cells [3] = assay: Scratch-wound healing assay; format: cell-based, human; conditions: A549, 60 mg/L
Protocol: (§3) The cells scratch‐wound assay was performed as previous reported.[38] The cells were seeded in a 6‐well plate and then cultured in DMEM medium containing indicated concentration of C1632 or 0.01% DMSO for 5 days. A denuded area was created across the diameter of dish by a yellow tip as the cell density up to 95%. Then cells were maintained in a serum‐free medium throughout the test. Phase‐contrast images were taken at the indicate time by Nikon Ti microscope and analysed with Axiovision Rel.4.8 software.

A549R cells [4] = assay: Scratch-wound healing assay; format: cell-based, human; conditions: 60 mg/L, after 72 h, control 97%
Protocol: as §3

A549 cells [5] = assay: SA-β gal staining assay; format: cell-based, human; conditions: A549, 15, 30 and 60 mg/L, 5 days
Protocol: (§4) The assay was set up following the β‐galactosidase (SA‐β gal) staining Kit, which was obtained from Sigma. In brief, cells were washed once with PBS and fixed with stationary liquid provided in the kit at room temperature for 15 min. Next, the cells were incubated overnight at 37°C in dark with the 1 ml working solution containing 0.05 mg/ml 5‐bromo‐4‐chloro‐3‐indolyl‐b‐d‐galactopyranoside (X‐gal) and observed under a normal light microscope (Nikon).

A549R cells [6] = assay: SA-β gal staining assay; format: cell-based, human; conditions: A549R, 15, 30 and 60 mg/L, 5 days
Protocol: as §4

A549R cells [7] = assay: Cell cycle distribution analysis (flow cytometry); format: cell-based, human; conditions: A549R, 15, 30 and 60 mg/L, 5 days, dose-dependent
Protocol: Cells were cultured in the absence or presence of 15, 30, and 60 mg/L of C1632 or 0.01% DMSO for 5 days, trypsinized, washed, and stained with propidium iodide before cell cycle distribution was assessed on a flow cytometer (BD FACSCalibur, BD Biosciences).

effect on CYP2C11 activity (CYP2C11): significantly inhibit | effect on CYP2D1 activity (CYP2D1): significantly inhibit
Compound: CC(=O)N(C)c1cccc(-c2ccc3nnc(C)n3n2)c1 [C1632]
cell adhesion to the matrix (A549 cells [1]): significant decrease | cell adhesion to the matrix (A549R cells [2]): significant decrease | migration rate (A549 cells [3]): significant decrease | scratch covered by migrated cells (A549R cells [4]): 60% | senescence (β-gal positive cells) (A549 cells [5]): did not induce the senescence; also recorded: did not significantly increase | senescence (β-gal positive cells) (A549R cells [6]): induce the senescence | cell cycle distribution (A549R cells [7]): arrested A549 and A549R cells at the G0/G1 phase
